In a compilation of properties of binary mixtures (doi:10.1007/s10765-020-02720-w):

Assay: xn = mol fraction of the nth substance listed
Details: 100 kPa

Compound: C[n+]1ccn(CCC(F)(F)C(F)(F)F)c1.F[P-](F)(F)(F)(F)F + CCCC[n+]1ccn(C)c1.F[P-](F)(F)(F)(F)F
- viscosity (293.2 K, x2 = 0.91): 430 mPa·s
- viscosity (293.2 K, x2 = 0.972): 370 mPa·s
- viscosity (308.19 K, x2 = 0.91): 171 mPa·s
- viscosity (308.19 K, x2 = 0.972): 153 mPa·s
- viscosity (338.16 K, x2 = 0.91): 46.2 mPa·s
- viscosity (368.13 K, x2 = 0.91): 17.6 mPa·s
- viscosity (368.13 K, x2 = 0.972): 16.38 mPa·s

Compound: CCCC[n+]1ccn(C)c1.F[P-](F)(F)(F)(F)F + C[n+]1ccn(CCC(F)(F)C(F)(F)F)c1.F[P-](F)(F)(F)(F)F
- viscosity (293.2 K, x1 = 1): 343 mPa·s
- viscosity (308.19 K, x1 = 1): 144 mPa·s
- viscosity (338.16 K, x1 = 1): 39.5 mPa·s
- viscosity (368.13 K, x1 = 1): 16.34 mPa·s
